Results published in patent EP1705169A2, “Triphenylalkene derivatives and their use as selective estrogen receptor modulators” (priority 1999, dated 2001).
Where two headings read alike, the source gives them in different places.

Legend:
MCF-7 cells = assay: cells; settings: for inhibition at 1 µM / Emax / cytotoxicity at 10 µM: Homo sapiens, MCF7, 96 h; for inhibition at 1 µM: read-out: Antagonism at 1 µM (% of full antagonism); for Emax: read-out: Maximal Agonism (% of E2); for cytotoxicity at 10 µM: toxicity at 10 µmol/l, 100 = all cells dead
Experimental: For experiments involving hormone or anti-hormone treatment, the cells in exponential growth phase were precultivated in the absence of estradiol for one day. […] After the incubation period the medium was removed. The exposure to study drugs was started immediately by adding fresh medium with 5 % stripped serum. Half of the cells were grown with estradiol, half without estradiol. Study compounds (dissolved in ethanol in 0.01 M concentration and diluted with the growth medium as appropriate) were added. The final concentrations of the compounds were 1,10, and 100 nM, and 1 and 10 µM. The cells were incubated for four days.
This method allows evaluation of estrogenicity based on the ability of the compounds to stimulate the growth of the estrogen-dependent cells in the absence of estradiol. Estrogenicity was estimated by comparing the maximal growth stimulus (at any concentration) of study compound as per cent from growth stimulus by estradiol (100 % stimulus). […] At high concentrations molecules may also show toxicity. Toxicity was estimated as the fraction of dead cells (i.e. 100 % means that all cells have died during the exposure).

[1] = test system: ovariectomized (OVX) rats; assay: Serum cholesterol level in ovariectomized (OVX) rats after 4 weeks dosing; assay type: in vivo, rat; settings: for Cholesterol level (mmol/1) in serum: OVX rat, n=8 (Sham 3.8 ± 0.4; OVX 4.6 ± 0.7); for Effect on cholesterol (in words): summary statement referring to Table 4
Text: (§1) Compounds were given p.o. to female rats for 4 or 5 weeks daily. At the end a blood sample was taken. Serum was separated by centrifugation and frozen until analyzed for total amount of cholesterol. Bone samples were taken from vertebra and tibia. Physical strength of the bones was studied as described by Peng et al, 1994. The assessments of the bone included: • Ash weight of tibial epiphyses • Epiphyses of one tibia was carefully prepared and burned. Samples were burned to remove water and organic material. Ash weight relates to the mineral content of the bone. In addition, bone samples were taken to study the histomorphometry. In some cases the bone formation was studied by injecting tetracycline (50 mg/kg i.p. 10 days before autopsy) and calcein (20 mg/kg i.p. 3 days before autopsy). The method is based on permanent binding of tetracycline into growing bone and its detection by fluorescence (Peng et al, 1994).

ovariectomized rats [2] = assay: Ash weight of tibial epiphyses in ovariectomized rats after 4 weeks dosing; assay type: in vivo; settings: 3.0 mg/kg p.o., beginning one week after ovariectomy (Sham 34.0 ± 2.9; OVX 32.2 ± 2.8), * = p < 0.05 vs ovariectomized
Text: as §1

ovariectomized rats [3] = settings: 3.0 mg/kg peroral daily, 4 weeks, ovariectomized rats (Sham 0.497 ± 0.103; Ovariectomized 0.099 ± 0.016)
immature female rats = assay: 3 day uterotropic assay in immature female rats (given alone and with estradiol); assay type: in vivo; settings: 3 days, immature female rats
Experimental: The values are given at two dose levels, low i.e. 3―5 mg/kg and high i.e. 10―50 mg/kg. Estrogenic activity can be estimated also after a 4 weeks' treatment of ovariectomized rats based on the uterine size.

ovariectomized rats [4] = assay: Strength of femoral neck (cantilever bending test) in ovariectomized rats after 4 weeks dosing; assay type: in vivo; settings: 3.0 mg/kg p.o., beginning one week after ovariectomy (Sham 86.7 ± 10.4; OVX 68.4 ± 8.5), * = p < 0.05 vs ovariectomized
Text: as §1
The mechanical testing of bones was carried out by materials testing machine, constructed in-house at Oulu University (Technical Services Department of the Medical Faculty). The testing machine is based on lever arm principle. One end of a steel lever is fixed. […] Compressive force is measured by a temperature-compensated force sensor, which is attached to the stationary part of the compression stage. […]
The maximal load on the femoral neck was measured by the cantilever bending test. […]

[5] = read-out: Maximal Cell Kill (% fraction of dead cells), With estradiol (E2)
[6] = read-out: Maximal Cell Kill (% fraction of dead cells), Without estradiol (E2)
[7] = summary statement referring to Table 2

Row | Compound | inhibition at 1 µM (MCF-7 cells) [%] | Emax (MCF-7 cells) [%] | cytotoxicity at 10 µM (MCF-7 cells; [5]) [%] | cytotoxicity at 10 µM (MCF-7 cells; [6]) [%] | Kill of MCF-7 cells (in words) (MCF-7 cells; highest investigated concentration (10 µM), Table 2) | Hormonal activity (in words) (MCF-7 cells; [7]) | Estrogenic and antiestrogenic action (in words) (MCF-7 cells; summary statement referring to Tables 2, 3 and 4) | Cholesterol level (mmol/1) in serum ([1]; 3 mg/kg, 4 weeks dosing) [mmol/1] | Effect on ovariectomy-induced increase of serum cholesterol level (in words) ([1]; OVX rats, 4 weeks dosing) | Effect on cholesterol (in words) [1] | Ash weight (mg) of tibial epiphyses (ovariectomized rats [2]) | Uterine size (ovariectomized rats [3]) [g] | Estrogen antagonism (% inhibition of estradiol) Given with estradiol (immature female rats; dose 3–5 mg/kg) | Uterotropic effect (% of estradiol) Given without estradiol (immature female rats; dose 3–5 mg/kg) | Estrogen antagonism (% inhibition of estradiol) Given with estradiol (immature female rats; dose 10–50 mg/kg) | Uterotropic effect (% of estradiol) Given without estradiol (immature female rats; dose 10–50 mg/kg) | Maximal load (N) of femoral neck (ovariectomized rats [4]) | Cytotoxic action (in words) (MCF-7 cells; [7]) | Cholesterol level (mmol/1) in serum ([1]; 3 µg/kg, 4 weeks dosing) [mmol/1]
1 | CN(C)CCOc1ccc(/C(=C(/CCCl)c2ccccc2)c2ccc(Cl)cc2)cc1 [No. 3, (E)-(2-{4-[4-Chloro-1-(4-chlorophenyl)-2-phenylbut-1-enyl]phenoxy}-ethyl)dimethylamine] | 1 | 1 | 94 | 100 | kill MCF-7 cells (human breast cancer cells) effectively | weak hormonal activity | weak estrogenic and no antiestrogenic action | 3.1 ± 0.4 | can prevent this increase even at very low dose and decrease the level below the sham operated level | decrease cholesterol | 36.0±3.4* mg | 0.140 ± 0.006 | 65 % inhibition of estradiol | 44 % of estradiol | 38 % inhibition of estradiol | 54 % of estradiol | 92.5±11.1* N |  | 
2 | CN(C)CCOc1cccc(/C(=C(/CCCl)c2ccccc2)c2ccccc2)c1 [No. 33, (Z)-{2-[3-(4-Chloro-1,2-diphenylbut-1-enyl)phenoxy]ethyl}dimethylamine] | 58 |  | 80 | 0 |  |  |  |  |  | decrease cholesterol |  |  |  |  |  |  |  | weak | 
3 | O=C(c1ccc(OCCN2CCCCC2)cc1)c1c(-c2ccc(O)cc2)sc2cc(O)ccc12 [Raloxifene, reference compound] |  |  |  |  |  |  |  |  |  |  | 34.9 ± 3.5 mg | 0.141 ± 0.021 | 90 % inhibition of estradiol | 11 % of estradiol | 92 % inhibition of estradiol | 13 % of estradiol | 84.2 ± 18.4* N |  | 
4 | CN(C)CCOc1ccc(/C(=C(/CCCl)c2ccccc2)c2ccccc2)cc1 [Toremifene, 4-chloro-1,2-diphenyl-1-[4-[2-(N,N-dimethylamino)ethoxy]phenyl]-1-butene, Z-isomer, reference compound] | 44 | 37 | 100 | 100 |  |  |  |  |  |  |  |  | 45 % inhibition of estradiol | 26 % of estradiol | 58 % inhibition of estradiol | 44 % of estradiol |  |  | 
5 | C[C@]12CC[C@@H]3c4ccc(O)cc4CC[C@H]3[C@@H]1CC[C@@H]2O [estradiol, reference compound] |  |  |  |  |  |  |  |  |  |  |  |  |  |  |  |  |  |  | 4.0 ± 0.4
